Experimental data published in US20230277444A1, “FORMULATIONS OF PTHrP ANALOGUES, TRANSDERMAL PATCHES THEREOF, AND USES THEREOF” (priority 2018, published 2023).

Assays:
in vivo = conditions: female, Chinese Cynomolgus, cynomolgus monkey, sc
[1] = cynomolgus monkey, in vivo, sc

- Cmax (in vivo): 3.34 ng/mL
- Tmax (in vivo): 7 min
- half-life (in vivo): 14 min
- level at 5 min (in vivo): 1.9 ng/mL
- level at 10 min (in vivo): 0.88 ng/mL
- level at 20 min (in vivo): 0.542 ng/mL
- level at 0.5 h (in vivo): 0.222 ng/mL
- level at 1 h (in vivo): 0.12 ng/mL
- AUC [1]: 131610
Structure (SMILES): CC[C@H](C)[C@H](NC(=O)[C@H](CO)NC(=O)[C@H](CCCCN)NC(=O)CNC(=O)[C@H](CCCCN)NC(=O)[C@H](CC(=O)O)NC(=O)[C@H](Cc1cnc[nH]1)NC(=O)[C@H](CC(C)C)NC(=O)[C@H](CC(C)C)NC(=O)[C@H](CCC(N)=O)NC(=O)[C@H](Cc1cnc[nH]1)NC(=O)[C@H](CCC(=O)O)NC(=O)[C@H](CO)NC(=O)[C@@H](NC(=O)[C@H](C)N)C(C)C)C(=O)N[C@@H](CCC(N)=O)C(=O)N[C@@H](CC(=O)O)C(=O)N[C@@H](CC(C)C)C(=O)N[C@@H](CCCNC(=N)N)C(=O)N[C@@H](CCCNC(=N)N)C(=O)N[C@@H](CCCNC(=N)N)C(=O)N[C@@H](CCC(=O)O)C(=O)N[C@@H](CC(C)C)C(=O)N[C@@H](CC(C)C)C(=O)N[C@@H](CCC(=O)O)C(=O)N[C@@H](CCCCN)C(=O)N[C@@H](CC(C)C)C(=O)N[C@@H](CC(C)C)C(=O)NC(C)(C)C(=O)N[C@@H](CCCCN)C(=O)N[C@@H](CC(C)C)C(=O)N[C@@H](Cc1cnc[nH]1)C(=O)N[C@H](C(=O)N[C@@H](C)C(N)=O)[C@@H](C)O [Abaloparatide, [Glu^22,25, Leu^23,28,31, Aib^29, Lys^26,30]hPTHrP(1-34)NH2]
